Legend:
[1] = molecular target: T1, human glycogen phosphorylase a (Homo sapiens, UniProt P06737); assay: Glycogen phosphorylase a activity test (reverse direction, release of inorganic phosphate); format: biochemical; conditions: 10 μM test substance, duplicate determinations, 40 min at room temperature
T1 sequence (P06737 2-847 limits assumed): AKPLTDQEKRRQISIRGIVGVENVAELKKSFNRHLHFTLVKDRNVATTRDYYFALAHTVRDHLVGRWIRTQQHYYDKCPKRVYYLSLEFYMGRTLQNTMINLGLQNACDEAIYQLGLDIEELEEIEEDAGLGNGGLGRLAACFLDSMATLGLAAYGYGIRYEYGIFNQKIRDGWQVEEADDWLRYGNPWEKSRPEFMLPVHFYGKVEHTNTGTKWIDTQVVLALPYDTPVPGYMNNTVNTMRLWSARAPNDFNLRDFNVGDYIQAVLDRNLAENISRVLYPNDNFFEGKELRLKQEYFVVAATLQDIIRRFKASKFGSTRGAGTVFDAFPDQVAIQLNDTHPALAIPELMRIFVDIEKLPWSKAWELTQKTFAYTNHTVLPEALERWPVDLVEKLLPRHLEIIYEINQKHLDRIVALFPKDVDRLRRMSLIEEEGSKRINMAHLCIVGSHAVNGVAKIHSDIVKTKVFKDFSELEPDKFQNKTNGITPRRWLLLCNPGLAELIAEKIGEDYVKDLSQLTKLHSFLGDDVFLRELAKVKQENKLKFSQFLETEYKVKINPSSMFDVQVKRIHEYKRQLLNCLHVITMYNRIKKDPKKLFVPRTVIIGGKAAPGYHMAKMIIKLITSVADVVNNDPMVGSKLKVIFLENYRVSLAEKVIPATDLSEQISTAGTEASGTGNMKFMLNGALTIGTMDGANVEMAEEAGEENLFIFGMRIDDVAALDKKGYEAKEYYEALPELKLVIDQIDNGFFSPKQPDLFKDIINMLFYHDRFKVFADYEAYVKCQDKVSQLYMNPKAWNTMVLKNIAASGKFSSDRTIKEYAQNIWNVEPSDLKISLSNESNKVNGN
Procedure: Glycogen Phophorylase a Activity Test
All reactions were carried out as duplicate determinations in 96-well microtiter plates (half area plates, Costar No. 3696), and the change in absorption as a consequence of the formation of the reaction product was measured at the wavelength specified below in a Multiskan Ascent Elisa Reader (Lab Systems, Finland).
In order to measure the GPa enzyme activity in the reverse direction, the conversion of glucose 1-phosphate to glycogen and inorganic phosphate was measured by the general method of Engers et al. (Engers H D, Shechosky S, Madsen N B, Can J Biochem 1970 July;48(7):746–754) with the following modifications: human glycogen phosphorylase a (for example containing 0.76 mg of protein/ml (Aventis Pharma Deutschland GmbH), dissolved in buffer solution E (25 mM β-glycerophosphate, pH 7.0, 1 mM EDTA and 1 mM dithiothreitol) was diluted to a concentration of 10 μg of protein/ml with buffer T (50 mM Hepes, pH 7.0, 100 mM KCl, 2.5 mM EDTA, 2.5 mM MgCl26H2O) and addition of 5 mg/ml of glycogen. Test substances were prepared as a 10 mM solution in DMSO and diluted to 50 μM with buffer solution T. To 10 μl of this solution were added 10 μl of 37.5 mM glucose dissolved in buffer solution T and 5 mg/ml of glycogen, and also 10 μl of a solution of human glycogen phosphorylase a (10 μg of protein/ml) and 20 μl of 2.5 mM glucose 1-phosphate. The base value of the activity of glycogen phosphorylase a in the absence of test substance was determined by adding 10 μl of buffer solution T (0.1% DMSO). The mixture was incubated at room temperature for 40 minutes and the released inorganic phosphate was determined by means of the general method of Drueckes et al. (al (Drueckes P, Schinzel R, Palm D, Anal Biochem 1995 Sep. 1;230(1):173–177) with the following modifications: 50 μl of a stop solution of 7.3 mM of ammonium molybdate, 10.9 mM of zinc acetate, 3.6% of ascorbic acid, 0.9% of SDS are added to 50 μl of the enzyme mixture. After 60 minutes of incubation at 45° C., the absorption was measured at 820 nm. To determine the background absorption, the stop solution was added immediately after the addition of the glucose 1-phosphate solution in a separate reaction. This test was carried out at a concentration of 10 μM of the test substance, in order to determine the respective inhibition of glycogen phosphorylase a by the test substance in vitro.

[2] = molecular target: T1, human glycogen phosphorylase a; assay: as above; format: biochemical; conditions: 10 μM test substance; duplicate determinations; 40 min at room temperature

| SMILES | melting point | % inhibition at 10 μM [1] | IC50 at 10 μM [2] | % inhibition at 10 μM ([1]; 10 µM) |
| --- | --- | --- | --- | --- |
| O=C(NC(=O)c1cc(F)c(F)cc1Cl)Nc1cc(F)ccc1N1CCC(C(=O)[O-])CC1.[Na+] | 160.9 °C |  |  |  |
| O=C(NC(=O)c1cc(F)c(F)cc1Cl)Nc1ccc(-c2n[nH]c(O)n2)cc1OC(F)(F)F [Example 6f, 1-(2-chloro-4,5-difluorobenzoyl)-3-[2-trifluoromethoxy-4-(5-hydroxy-1H-[1,2,4]triazol-3-yl)phenyl]urea] | > 350 °C | 98% |  |  |
| O=C(NC(=O)c1ccc(F)cc1Cl)Nc1ccccc1-c1nnc(O)o1 [Example 8d, 1-(2-chloro-4-fluorobenzoyl)-3-[2-(5-hydroxy-[1,3,4]oxadiazol-2-yl)phenyl]urea] | 229.7 °C | 100% |  |  |
| COc1cc(-c2nnc(O)o2)ccc1NC(=O)NC(=O)c1cc(F)c(F)cc1Cl [Example 8e, 1-(2-chloro-4,5-difluorobenzoyl)-3-[4-(5-hydroxy-[1,3,4]oxadiazol-2-yl)-2-methoxyphenyl]urea] | 293.1 °C | 97% |  |  |
| O=C(NC(=O)c1cc(F)c(F)cc1Cl)Nc1ccccc1-c1nnc(O)o1 [Example 8f, 1-(2-chloro-4,5-difluorobenzoyl)-3-[2-(5-hydroxy-[1,3,4]oxadiazol-2-yl)phenyl]urea] | 222.9 °C | 99% |  |  |
| O=C(NC(=O)c1ccc(F)cc1Cl)Nc1ccccc1-c1nnco1 [Example 8g, 1-(2-chloro-4-fluorobenzoyl)-3-(2-[1,3,4]oxadiazol-2-ylphenyl)urea] | 204 °C | 98% |  |  |
| O=C(NC(=O)c1cc(F)c(F)cc1Cl)Nc1ccccc1-c1nnco1 [Example 8h, 1-(2-chloro-4,5-difluorobenzoyl)-3-(2-[1,3,4]oxadiazol-2-ylphenyl)urea] | 199.6 °C | 100% |  |  |
| CNc1nn(-c2ccc(NC(=O)NC(=O)c3ccc(F)cc3Cl)c(C)c2)c(=O)o1 [Example 9f, 1-(2-chloro-4-fluorobenzoyl)-3-(2-methyl-4-(5-methylamino-2-oxo-3H-[1,3,4]-oxadiazol-3-yl)phenyl)urea] | 198 °C | 54% |  |  |
| O=C(NC(=O)c1ccc(F)cc1Cl)Nc1ccc(-c2noc(=O)[nH]2)cc1OC(F)(F)F [Example 11e, 1-(2-chloro-4-fluorobenzoyl)-3-[4-(5-oxo-4,5-dihydro-[1,2,4]oxadiazol-3-yl)-2-trifluoromethoxyphenyl]urea] | 230.1 °C | 98% |  |  |
| O=C(NC(=O)c1ccc(F)cc1Cl)Nc1ccc(-c2noc(=O)[nH]2)cc1Cl [Example 11f, 1-(2-chloro-4-fluorobenzoyl)-3-[2-chloro-4-(5-oxo-4,5-dihydro-[1,2,4]oxadiazol-3-yl)phenyl]urea] | 243.6 °C | 98% |  |  |
| O=C(NC(=O)c1cc(F)c(F)cc1Cl)Nc1ccccc1-c1ccc(C(=O)O)o1 [Example 13b, 5-{2-[3-(2-chloro-4,5-difluorobenzoyl)ureido]phenyl}furan-2-carboxylic acid] | 239.3 °C | 100% |  |  |
| O=C(NC(=O)c1ccc(F)cc1Cl)Nc1ccccc1-c1ccc(C(=O)O)o1 [Example 13c, 5-{2-[3-(2-chloro-4-fluorobenzoyl)ureido]phenyl}furan-2-carboxylic acid] | 236.3 °C | 100% |  |  |
| NC(=O)C1CCCN(c2ccc(F)cc2NC(=O)NC(=O)c2cc(F)c(F)cc2Cl)C1 (stereo not drawn) [Example 15c, 1-{2-[3-(2-chloro-4,5-difluorobenzoyl)ureido]-4-fluorophenyl}piperidine-3-carboxamide] | 216 °C | 0.3% |  |  |
| O=C(NC(=O)c1cc(F)c(F)cc1Cl)Nc1cc(F)ccc1N1CCC(C(=O)O)CC1 [Example 16c, 1-{2-[3-(2-chloro-4,5-difluorobenzoyl)ureido]-4-fluorophenyl}piperidine-4-carboxylic acid] | 221.7 °C |  |  |  |
| O=C(NC(=O)c1cc(F)c(F)cc1Cl)Nc1cc(F)ccc1N1CCCC(C(=O)O)C1 (stereo not drawn) [Example 17] |  |  | 0.01 µM |  |
| COC(=O)C1CCN(c2ccc(Cl)cc2NC(=O)NC(=O)c2cc(F)c(F)cc2Cl)CC1 [Example 29] |  |  | 0.01 µM |  |
| O=C(NC(=O)c1cc(F)c(F)cc1Cl)Nc1cc(Cl)ccc1N1CCCC(C(=O)O)C1 (stereo not drawn) [Example 31] |  |  | 0.01 µM |  |
| COC(=O)c1ccc(N2CCCC(C(=O)O)C2)c(NC(=O)NC(=O)c2ccc(F)cc2Cl)c1 (stereo not drawn) [Example 34] |  | 3.2% |  |  |
| CCOC(=O)C1CCCN(c2ccc(F)cc2NC(=O)NC(=O)c2cc(F)c(F)cc2Cl)C1 (stereo not drawn) [Example 35] |  | 0.3% |  |  |
| CCOC(=O)C1CCCN(c2ccc(F)cc2NC(=O)NC(=O)c2ccc(F)cc2Cl)C1 (stereo not drawn) [Example 36] |  | 0.3% |  |  |
| CCN(CC)C(=O)C1CCCN(c2ccc(F)cc2NC(=O)NC(=O)c2cc(F)c(F)cc2Cl)C1 (stereo not drawn) [Example 37] |  | 3.9% |  |  |
| CCN(CC)C(=O)C1CCCN(c2ccc(F)cc2NC(=O)NC(=O)c2ccc(F)cc2Cl)C1 (stereo not drawn) [Example 38] |  | 4.6% |  |  |
| COC(=O)C1CCN(c2ccc(F)cc2NC(=O)NC(=O)c2cc(F)c(F)cc2Cl)CC1 [Example 39] |  |  | 0.01 µM |  |
| COC(=O)C1CCN(c2ccc(F)cc2NC(=O)NC(=O)c2ccc(F)cc2Cl)CC1 [Example 40] |  | 4.6% |  |  |
| O=C(NC(=O)c1ccc(F)cc1Cl)Nc1cc(C(F)(F)F)ccc1N1CCC(C(=O)O)CC1 [Example 43] |  |  |  | 0.15% |
| COC(=O)C1CCN(c2ccc(S(C)(=O)=O)cc2NC(=O)NC(=O)c2cc(F)c(F)cc2Cl)CC1 [Example 44] |  | 0.05% |  |  |
| COC(=O)C1CCN(c2ccc(S(C)(=O)=O)cc2NC(=O)NC(=O)c2ccc(F)cc2Cl)CC1 [Example 45] |  | 0.8% |  |  |

Reference: patent publication US7138414B2, “Heterocyclically substituted benzoylureas, process for their preparation and their use as pharmaceuticals” (Sanofi-Aventis Deutschland GmbH, priority 2002, dated 2006)
